Results on 2 compounds are retold here after patent publication EP0253662B1, “Pharmaceutical compositions” (ED. GEISTLICH SÖHNE AG FÜR CHEMISCHE INDUSTRIE, priority 1986, dated 1988).

A short description of data set [1]: intravenous infusion tolerance (vagotonic side effects). In kind it is in vivo. The source says:
This is a surprising effect of considerable value in ensuring that taurolidine can be given intravenously at a rapid rate of infusion, for example in cases of endotoxin shock. In general, the overall intravenous tolerance of taurolidine is increased by the presence of glucose. The same advantages apply also to taurultam.

A further data set in a line: water-solubility. In kind it is physicochemical. The settings on record: in water. The method, then:
However, the water-solubility of both compounds is relatively low, namely I g/litre in the case of taurolidine and 8 g/litre in the case of taurultam. Relatively large quantities of the compounds are required where toxaemia is well established and even where the compounds are administered in large volumes by intravenous infusion, low solubility can limit their use. In particular, during treatment of patients suffering from septic shock and consequent renal insufficiency, administration of significant quantities of liquid (after an initial period of volume compensation) is contra-indicated and the intravenous infusion solution should be as concentrated as possible. Where glucose is present, this is also beneficial in such cases in order to support the brain cells.

≈ marks a conversion by molar mass, not a printed value.

For `O=S1(=O)CCN(CN2CCS(=O)(=O)NC2)CN1` [taurolidine], the “vagotonic side effects, such as meiosis, lachrymation, salivation, bradycardia and excitation” value in data set [1] (2% aqueous taurolidine containing polyvinylpyrrolidone, administered intravenously, high rates of infusion) is recorded as “short duration vagotonic side effects occur”. In data set [1] (administered in glucose solution rather than polyvinylpyrrolidone, intravenously), the vagotonic effects result is “such vagotonic effects are not observed”.
By solubility is commonly meant how much of the substance goes into solution per volume. Low readings indicate little dissolved substance, high ones much dissolved substance. In the data set “water-solubility”, `O=S1(=O)CCNCN1` [taurultam] showed a solubility of 8000 µg/mL (≈ 58.7 mM).
